# Measurements reported in patent publication US10344019B2 (priority 2010, dated 2019).
# Where two headings read alike, the source gives them in different places.
# How the values were obtained:
# Assay in all cases: microbe, parasite or virus in culture
# Format in all cases: cell-based
# [1] = tested on: HCV 2a JFH-1 Rluc cells (dicistronic genotype 2a JFH-1 replicon, RLuc reporter); settings: genotype 2a JFH-1 replicon, RLuc reporter, read-out: 2a JFH
# Protocol: (§1) Evaluation of cell-based anti-HCV activity: Antiviral potency (EC50) was determined using a Renilla luciferase (RLuc)-based HCV replicon reporter assay. To perform the assay for genotype 1 and 2a JFH-1, HCV 1b RLuc cells (harboring a dicistronic genotype 1b Con1 replicon that encodes a RLuc reporter), or HCV 1a RLuc cells (harboring a dicistronic genotype 1a H77 replicon that encodes a RLuc reporter), or HCV 2a JFH-1 Rluc cells (harboring a dicistronic genotype 2a JFH-1 replicon that encodes a RLuc reporter) were dispensed into 384-well plates. To perform the assay for genotype 2a (with M31 present) or 2b, HCV 2a Rluc or 2b Rluc cells (both with M31 present) harboring a dicistronic NS5A chimeric genotype 2a JFH-1 replicon that encodes a RLuc reporter and either genotype 2a J6 strain NS5A gene or genotype 2b MD2b-1 NS5A gene (based on Los Alamos HCV database isolates, both with M31 present) respectively, were dispensed into 384-well plates. To perform the assay for genotype 3 and 4, HCV 3a RLuc or 4a Rluc cells harboring a dicistronic NS5A chimeric genotype 1b Con1 replicon that encodes a RLuc reporter and either a consensus genotype 3a NS5A gene or genotype 4a NS5A gene (based on Los Alamos HCV database isolates) respectively, were dispensed into 384-well plates. Compounds were re-suspended in DMSO at a concentration of 10 mM and serially diluted in DMSO either manually or using an automated pipeting instrument. Serially diluted compounds were mixed with cell culture media and added to the seeded cells. […] 72 hours later, cells were lysed and Renilla luciferase activity quantified as recommended by the manufacturer (Promega-Madison, Wis.). Non-linear regression was performed to calculate EC50 values.
# [2] = tested on: HCV 1a RLuc cells (dicistronic genotype 1a H77 replicon, RLuc reporter); settings: genotype 1a H77 replicon, RLuc reporter, read-out: 1a
# Protocol: as §1
# [3] = tested on: HCV 3a RLuc cells (NS5A chimeric genotype 1b Con1 replicon with consensus genotype 3a NS5A gene)
# Protocol: as §1
# [4] = tested on: HCV 1b RLuc cells (dicistronic genotype 1b Con1 replicon, RLuc reporter)
# Protocol: as §1
# [5] = Hepatitis C virus, read-out: 3a, genotype 3a NS5A chimeric 1b Con1 replicon
# [6] = Hepatitis C virus, read-out: 1b (nM)
SMILES,EC50 ([1]; Hepatitis C virus),EC50 ([2]; Hepatitis C virus),"EC50 [3, 5]","EC50 [4, 6]",EC50 [1],EC50 [2],EC50 ([4]; read-out: 1b),"EC50 ([3]; read-out: 3a, genotype 3a NS5A chimeric 1b Con1 replicon)"
COC(=O)N[C@H](C(=O)N1CCC[C@H]1c1ncc(-c2ccc3cc(-c4ccc(-c5cnc([C@@H]6CCCN6C(=O)[C@@](C)(NC(=O)OC)c6ccccc6)[nH]5)cc4)ccc3c2)[nH]1)C(C)C [Example 163],1 to 44 nM,1 to 44 nM,> 5 nM,0.031 nM,,,,
COC(=O)N[C@@H](C)C(=O)N1CCC[C@H]1c1ncc(-c2ccc3cc(-c4ccc(-c5cnc([C@@H]6CCCN6C(=O)[C@H](NC(=O)OC)c6ccccc6)[nH]5)cc4)ccc3c2)[nH]1 [Example 164],0.001 to 0.999 nM,0.001 to 0.999 nM,0.001 to 0.99 nM,0.01 nM,,,,
CCN[C@@H](C(=O)N1CCC[C@H]1c1nc(-c2ccc(-c3ccc4cc(-c5c[nH]c([C@@H]6CCCN6C(=O)[C@@H](NC(=O)OC)C(C)C)n5)ccc4c3)cc2)c[nH]1)c1ccccc1 [Example 165],0.001 to 0.999 nM,0.001 to 0.999 nM,0.001 to 0.99 nM,0.009 nM,,,,
COC(=O)N[C@H](C(=O)N1CCC[C@H]1c1nc2ccc(-c3ccc(-c4ccc5c(c4)CCc4nc([C@@H]6CCCN6C(=O)[C@H](NC(=O)OC)c6ccccc6)[nH]c4-5)cc3)cc2[nH]1)C(C)C [Example 166],0.001 to 0.999 nM,1 to 44 nM,0.001 to 0.99 nM,0.018 nM,,,,
COC(=O)N[C@H](C(=O)N1C[C@@H](C#N)C[C@H]1c1nc2ccc(-c3ccc(-c4ccc5c(c4)CCc4nc([C@@H]6CCCN6C(=O)[C@H](NC(=O)OC)c6ccccc6)[nH]c4-5)cc3)cc2[nH]1)C1CCOCC1 [Example 167],0.001 to 0.999 nM,0.001 to 0.999 nM,0.001 to 0.99 nM,0.048 nM,,,,
CCN(C1CC1)[C@@H](C(=O)N1CCC[C@H]1c1nc(-c2ccc(-c3ccc4cc(-c5c[nH]c([C@@H]6CCCN6C(=O)[C@@H](NC(=O)OC)C(C)C)n5)ccc4c3)cc2)c[nH]1)c1ccccc1 [Example 168],1 to 44 nM,1 to 44 nM,0.001 to 0.99 nM,0.01 nM,,,,
COC(=O)N[C@H](C(=O)N1CCC[C@H]1c1ncc(-c2ccc3cc(-c4ccc5c(c4)CCc4nc([C@@H]6CCCN6C(=O)[C@H](NC(=O)OC)c6ccccc6)[nH]c4-5)ccc3c2)[nH]1)C1CCOCC1 [Example 170],0.001 to 0.999 nM,0.001 to 0.999 nM,0.001 to 0.99 nM,0.032 nM,,,,
CCN(CC)[C@@H](C(=O)N1CCC[C@H]1c1ncc(-c2ccc(-c3ccc4cc(-c5cnc([C@@H]6CCCN6C(=O)[C@@H](NC(=O)OC)C6CCOCC6)[nH]5)ccc4c3)cc2)[nH]1)c1ccccc1 [Example 171],0.001 to 0.999 nM,0.001 to 0.999 nM,0.001 to 0.99 nM,0.026 nM,,,,
COC(=O)N[C@H](C(=O)N1CCC[C@H]1c1ncc(-c2ccc3cc(-c4ccc5c(c4)OCc4nc([C@@H]6CCCN6C(=O)[C@H](NC(=O)OC)c6ccccc6)[nH]c4-5)ccc3c2)[nH]1)C(C)C [Example 172],0.001 to 0.999 nM,0.001 to 0.999 nM,0.001 to 0.99 nM,0.011 nM,,,,
COC(=O)N[C@H](C(=O)N1CCC[C@H]1c1ncc(-c2ccc3cc(-c4ccc5c(ccc6nc([C@@H]7CCCN7C(=O)[C@H](NC(=O)OC)c7ccccc7)[nH]c65)c4)ccc3c2)[nH]1)C1CCOCC1 [Example 173],0.001 to 0.999 nM,0.001 to 0.999 nM,0.001 to 0.99 nM,0.024 nM,,,,
COC(=O)N[C@H](C(=O)N1CCC[C@H]1c1nc2c([nH]1)-c1ccc(-c3ccc4cc(-c5cnc([C@@H]6CCCN6C(=O)[C@H](NC(=O)OC)c6ccccc6)[nH]5)ccc4c3)cc1CC2)C1CCOCC1 [Example 174],,,0.001 to 0.99 nM,,0.001 to 0.999 nM,0.001 to 0.999 nM,0.015 nM,
COC(=O)N[C@H](C(=O)N1CCC[C@H]1c1nc2ccc3cc(-c4ccc5cc(-c6cnc([C@@H]7CCCN7C(=O)[C@H](NC(=O)OC)c7ccccc7)[nH]6)ccc5c4)ccc3c2[nH]1)C1CCOCC1 [Example 175],0.001 to 0.999 nM,0.001 to 0.999 nM,0.001 to 0.99 nM,0.011 nM,,,,
COC(=O)N[C@H](C(=O)N1CCC[C@H]1c1nc2c([nH]1)COc1cc(-c3ccc4cc(-c5c[nH]c([C@@H]6CCCN6C(=O)[C@H](NC(=O)OC)c6ccccc6)n5)ccc4c3)ccc1-2)C(C)C [Example 176],0.001 to 0.999 nM,0.001 to 0.999 nM,0.001 to 0.99 nM,0.006 nM,,,,
COC(=O)N[C@H](C(=O)N1CCC[C@H]1c1nc(-c2ccc(-c3ccc4cc(C5=CNC([C@@H]6CCCN6C(=O)[C@H](NC(=O)OC)c6ccccc6)N5)ccc4c3)cc2)c[nH]1)C1CCOCC1 (some centres unmarked) [Example 178],0.001 to 0.999 nM,0.001 to 0.999 nM,0.001 to 0.99 nM,0.024 nM,,,,
COC(=O)N[C@H](C(=O)N1CCC[C@H]1c1nc(-c2ccc3cc(-c4ccc(-c5c[nH]c([C@@H]6CCCN6C(=O)[C@@H](c6ccccc6)N(C6CC6)C6CC6)n5)cc4)ccc3c2)c[nH]1)C(C)C [Example 179],1 to 44 nM,1 to 44 nM,> 5 nM,0.041 nM,,,,
COC(=O)N[C@H](C(=O)N1CCC[C@H]1c1ncc(-c2ccc3c(c2)CCc2cc(-c4cnc([C@@H]5CCCN5C(=O)[C@H](NC(=O)OC)c5ccccc5)[nH]4)ccc2-3)[nH]1)C(C)C [Example 180],0.001 to 0.999 nM,0.001 to 0.999 nM,0.001 to 0.99 nM,0.007 nM,,,,
COC(=O)N[C@H](C(=O)N1CCC[C@H]1c1nc2c([nH]1)COc1cc(-c3ccc4cc(-c5c[nH]c([C@@H]6CCCN6C(=O)[C@@H](c6ccccc6)N(C)C)n5)ccc4c3)ccc1-2)C1CCOCC1 [Example 182],0.001 to 0.999 nM,0.001 to 0.999 nM,0.001 to 0.99 nM,0.05 nM,,,,
COC(=O)NC(C(=O)N1CCC[C@H]1c1ncc(-c2ccc(-c3ccc4cc(-c5cnc([C@@H]6CCCN6C(=O)[C@@H](NC(=O)OC)C(C)C)[nH]5)ccc4c3)cc2)[nH]1)c1ccccn1 (some centres unmarked) [Example 183],0.001 to 0.999 nM,0.001 to 0.999 nM,1 to 4.99 nM,0.013 nM,,,,
COC(=O)N[C@H](C(=O)N1C[C@H](C)C[C@H]1c1ncc(-c2ccc3cc(-c4ccc(-c5cnc([C@@H]6CCCN6C(=O)[C@H](NC(=O)OC)c6cccc(C)c6)[nH]5)cc4)ccc3c2)[nH]1)C(C)C [Example 184],0.001 to 0.999 nM,0.001 to 0.999 nM,0.001 to 0.99 nM,0.009 nM,,,,
COC(=O)N[C@H](C(=O)N1CCC[C@H]1c1ncc(-c2ccc3cc(-c4ccc(-c5cnc([C@@H]6CCCN6C(=O)[C@H](NC(=O)OC)c6cccc(PC)c6)[nH]5)cc4)ccc3c2)[nH]1)C(C)C (some centres unmarked) [Example 185],0.001 to 0.999 nM,1 to 44 nM,0.001 to 0.99 nM,0.008 nM,,,,
CCC(=O)N[C@@H](C(=O)N1CCC[C@H]1c1ncc(-c2ccc(-c3ccc4cc(-c5cnc([C@@H]6CCCN6C(=O)[C@@H](NC(=O)OC)C(C)C)[nH]5)ccc4c3)cc2)[nH]1)c1ccccc1 [Example 187],0.001 to 0.999 nM,0.001 to 0.999 nM,0.001 to 0.99 nM,0.007 nM,,,,
COC(=O)N[C@H](C(=O)N1CCC[C@H]1c1ncc(-c2ccc3cc(-c4ccc(-c5cnc([C@@H]6C[C@@H](C)CN6C(=O)[C@H](NC(=O)OC)c6ccccc6)[nH]5)cc4)ccc3c2)[nH]1)C1CCOCC1 [Example 188],0.001 to 0.999 nM,0.001 to 0.999 nM,0.001 to 0.99 nM,0.012 nM,,,,
COC(=O)N[C@H](C(=O)N1CCC[C@H]1c1ncc(-c2ccc3c(c2)CCc2cc(-c4ccc5nc([C@@H]6CCCN6C(=O)[C@H](NC(=O)OC)c6ccccc6)[nH]c5c4)ccc2-3)[nH]1)C(C)C [Example 189],0.001 to 0.999 nM,0.001 to 0.999 nM,0.001 to 0.99 nM,0.006 nM,,,,
COC(=O)N[C@H](C(=O)N1CCC[C@H]1c1ncc(-c2ccc3cc(-c4ccc(-c5cnc([C@@H]6CCCN6C(=O)C6(NC(=O)OC)Cc7ccccc7C6)[nH]5)cc4)ccc3c2)[nH]1)C(C)C [Example 191],> 44 nM,1 to 44 nM,> 5 nM,0.253 nM,,,,
COC(=O)N[C@H](C(=O)N1CCC[C@H]1c1ncc(-c2ccc(-c3ccc(-c4ccc(-c5cnc([C@@H]6CCCN6C(=O)[C@H](NC(=O)OC)c6ccccc6)[nH]5)cc4)cc3)cc2)[nH]1)C(C)C [Example 192],0.001 to 0.999 nM,0.001 to 0.999 nM,0.001 to 0.99 nM,0.004 nM,,,,
COC(=O)N[C@H](C(=O)N1CCC[C@H]1c1ncc(-c2ccc(-c3ccc(-c4ccc(-c5cnc([C@@H]6CCCN6C(=O)[C@H](NC(=O)OC)c6ccccc6)[nH]5)cc4)cc3)cc2)[nH]1)C(C)C [Example 193],,,,,0.001 to 0.999 nM,0.001 to 0.999 nM,0.005 nM,0.001 to 0.99 nM
